Here are results for twelve compounds from ChEMBL document CHEMBL3232769, “Design and synthesis of conformationally restricted inhibitors of active thrombin activatable fibrinolysis inhibitor (TAFIa)” (Bioorg Med Chem, 2014).

The nature of series [1]: Clearance in rat. It counts as ADME, organism-based. The settings on record: in vivo.
The target of series [2] is T1, Carboxypeptidase B2 (Homo sapiens, UniProt Q96IY4).
T1 sequence (Q96IY4 whole entry): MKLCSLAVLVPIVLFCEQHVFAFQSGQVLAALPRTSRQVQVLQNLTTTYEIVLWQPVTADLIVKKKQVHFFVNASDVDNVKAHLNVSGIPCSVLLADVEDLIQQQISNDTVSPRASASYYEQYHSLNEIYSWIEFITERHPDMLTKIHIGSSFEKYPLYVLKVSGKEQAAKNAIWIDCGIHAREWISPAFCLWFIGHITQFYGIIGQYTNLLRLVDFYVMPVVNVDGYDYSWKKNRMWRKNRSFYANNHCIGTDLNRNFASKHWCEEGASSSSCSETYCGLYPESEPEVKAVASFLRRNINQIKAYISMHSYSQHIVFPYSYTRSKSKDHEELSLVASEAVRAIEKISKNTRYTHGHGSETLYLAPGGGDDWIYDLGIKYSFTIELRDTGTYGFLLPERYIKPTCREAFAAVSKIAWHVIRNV
Put plainly: Inhibition of […] in human plasma assessed as clot lysis.

Series [3] deals with T1, Carboxypeptidase B2. The experiment in a line: Inhibition of human […] using hippuryl-L-arginine/hippuryl-L-lysine as substrate by liquid chromatographic analysis.
Series [4] can be described thus: Tmax in rat. It counts as ADME, organism-based. The settings on record: in vivo.
Series [5] can be described thus: Oral bioavailability in rat. Type of series: ADME, organism-based. The settings on record: in vivo.
The target in series [6] is T1, Carboxypeptidase B2. The experiment in a line: Inhibition of human TAF1a.
The target in series [7] is T2, Carboxypeptidase N catalytic chain (Homo sapiens, UniProt P15169).
T2 sequence (P15169 whole entry): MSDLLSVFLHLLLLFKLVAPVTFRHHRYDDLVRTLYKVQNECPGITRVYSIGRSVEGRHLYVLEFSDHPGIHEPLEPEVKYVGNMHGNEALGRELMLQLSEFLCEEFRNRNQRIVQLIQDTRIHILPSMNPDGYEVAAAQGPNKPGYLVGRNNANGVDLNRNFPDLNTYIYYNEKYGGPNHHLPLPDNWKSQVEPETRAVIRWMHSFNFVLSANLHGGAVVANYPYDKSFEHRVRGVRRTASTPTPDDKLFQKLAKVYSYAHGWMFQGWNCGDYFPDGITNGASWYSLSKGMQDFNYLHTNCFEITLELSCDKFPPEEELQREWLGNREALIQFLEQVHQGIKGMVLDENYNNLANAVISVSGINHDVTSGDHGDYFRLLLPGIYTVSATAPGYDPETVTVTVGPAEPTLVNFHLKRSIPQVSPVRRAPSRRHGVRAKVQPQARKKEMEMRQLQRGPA
Put plainly: Inhibition of carboxypeptidase N (unknown origin).

A short description of series [8]: Lipophilicity, log D of the compound at pH 7.4. The settings on record: buffer.
In series [9] the target is Phosphodiesterase 4 (Homo sapiens) (UniProt P27815+Q08499+Q07343+Q08493). Put plainly: Inhibition of PDE4 (unknown origin) at 10 uM. Type of series: protein assay.
A short description of series [10]: Oral bioavailability in rat at 20 umol/kg. Type of series: ADME, organism-based. The settings on record: in vivo.
The nature of series [11]: Clearance in dog. It counts as ADME, organism-based, Canis lupus familiaris. The settings on record: in vivo.
Series [12] is described as follows: Oral bioavailability in rat at 6.8 umol/kg. Type of series: ADME, organism-based. The settings on record: in vivo.

The structures appear in SMILES notation. Where only a bound is given, the exact number is not on record here.

In series [1], `C[C@@H](S)[C@@H](Cc1ccc(N)nc1)C(=O)O` yielded a clearance of 27 mL/min/kg. Further, the IC50 on Carboxypeptidase B2 [2] is 0.4 µM; on Carboxypeptidase B2 [3] it was 0.087 µM. The time to peak (Tmax) in [4] came to 30 min. The compound also displayed a bioavailability in series [5] of 75%.

`NCCCC1(C(=O)O)CCc2c(ncn2-c2ccccc2)C1` (racemic): the half-inhibitory concentration (IC50) at Carboxypeptidase B2 [2] was 7.1 µM; against Carboxypeptidase B2 [6], 0.585 µM; in series [7], over 1000 µM.

Take `NCCCC1(C(=O)O)CCc2c(ncn2CCC2CCC(C3CCCCC3)CC2)C1` (racemic): the values for the IC50 (on Carboxypeptidase B2 [2]; on Carboxypeptidase B2 [6]; in series [7]) were 16 µM, 0.124 µM and over 1000 µM, respectively. In [8], this compound came in with a logD of 3.6.

In series [1], `NCCC[C@@]1(C(=O)O)CCn2c(-c3ccccc3)cnc2C1` showed a clearance of 12 mL/min/kg. The figures for the IC50 (at Carboxypeptidase B2 [2]; against Carboxypeptidase B2 [6]; in [7]) were 1.3 µM, 0.066 µM and over 1000 µM, respectively. This compound registered an inhibition in [9] of 79%. In [5], this compound came in with a bioavailability of 4.9%. In series [8], the pH-dependent lipophilicity (logD) is under 0.

As for `CCCn1cnc(C[C@H](CCCN)C(=O)O)c1` [UK-396,082], the clearance in series [1] is 2 mL/min/kg. For the same compound, the concentration for half-maximal inhibition (IC50) on Carboxypeptidase B2 [2] amounted to 5 µM; on Carboxypeptidase B2 [3], 0.45 µM. In addition, the Tmax in [4] was 60 min. In [10], this compound showed a bioavailability of 8%.

Take `CCc1cnc2n1CCC(CCCN)(C(=O)O)C2` (racemic): the half-inhibitory concentration (IC50) on Carboxypeptidase B2 [2] is over 100 µM; at Carboxypeptidase B2 [6], 2.27 µM; in series [7], over 1000 µM.

With `NCCC[C@@]1(C(=O)O)CCc2c(ncn2C2CCCCC2)C1`, the clearance in [1] was 6.2 mL/min/kg; in series [11], 3.5 mL/min/kg. Besides, the IC50 at Carboxypeptidase B2 [2] was 0.08 µM; on Carboxypeptidase B2 [6] it was 0.117 µM; in [7], over 1000 µM. This compound also gave an inhibition in series [9] of 79%. The compound also yielded a bioavailability in [5] of 1.4%. Further, the log distribution coefficient (logD) in series [8] was under 0.

`CCCn1cnc2c1CC[C@@](CCCN)(C(=O)O)C2`: the clearance in series [1] was found to be 6 mL/min/kg. Besides, the time of peak concentration (Tmax) in series [4] worked out at 12 min. In addition, in series [8], the pH-dependent lipophilicity (logD) is under 0. Besides, the bioavailability in [12] was 8%; in series [10] it was 2%. In [7], this compound returned a 50% inhibitory concentration (IC50) of over 1000 µM.

Turning to `NCCC[C@@]1(C(=O)O)CCc2c(ncn2Cc2cccc(-c3ccccc3)c2)C1`, the values for the IC50 (on Carboxypeptidase B2 [2]; against Carboxypeptidase B2 [6]; in series [7]) were 2.5 µM, 0.106 µM and over 1000 µM, respectively. The same compound displayed a bioavailability in series [5] of 1.7%. This compound also came in with a pH-dependent lipophilicity (logD) in [8] of 1.

On to `Cl.NCCC[C@@]1(C(=O)O)CCn2c(-c3cccc(-c4ccc(Cl)cc4Cl)c3)cnc2C1`, for which the IC50 is 3.2 µM at Carboxypeptidase B2 [2], under 0.041 µM at Carboxypeptidase B2 [6] and over 1000 µM in series [7]. This compound also yielded a bioavailability in series [5] of 0.9%. Moreover, the logD in series [8] stood at 2.4.

For the compound `CC(C)CCn1cnc2c1CC[C@@](CCCN)(C(=O)O)C2.Cl`, the results for the IC50 (on Carboxypeptidase B2 [2]; on Carboxypeptidase B2 [6]; in [7]) were 0.1 µM, under 0.041 µM and over 1000 µM, respectively. The bioavailability in series [5] turned out to be 1.4%. Also, the logD in series [8] is under 0.

As for `CCCn1cnc(CC(NCCN)C(=O)O)c1` (stereo not drawn), the IC50 at Carboxypeptidase B2 [2] was determined as 8 µM; at Carboxypeptidase B2 [3] it was 0.62 µM.
